# From patent US10183950B2, “Thienopyrimidine inhibitors of atypical protein kinase C” (Cancer Research Technology Limited, priority 2011, dated 2019)
# Target: T1, kinase-domain human PKCι (Homo sapiens, UniProt P41743)
# T1 construct: Recombinant, kinase-domain human PKCι is expressed and purified in-house; made in house
# T1 sequence (P41743 254-522 limits assumed): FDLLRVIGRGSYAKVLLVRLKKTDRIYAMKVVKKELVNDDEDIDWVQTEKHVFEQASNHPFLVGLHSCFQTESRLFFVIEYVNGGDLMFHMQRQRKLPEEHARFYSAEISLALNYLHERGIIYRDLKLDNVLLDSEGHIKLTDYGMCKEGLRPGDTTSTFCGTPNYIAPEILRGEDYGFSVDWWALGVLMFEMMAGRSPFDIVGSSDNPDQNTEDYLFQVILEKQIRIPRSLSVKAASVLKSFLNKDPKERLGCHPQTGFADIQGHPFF
# Test: PKCι IC50 IMAP fluorescence polarisation assay, kinase-domain enzyme
# Type: biochemical
# Conditions: kinase domain PKCi at 2 μM ATP; read-out: IC50 in IMAP assay against kinase domain PKCi
row,Compound,IC50
1,"C[C@@H](N)CNc1nc(-c2ccncc2)nc2cc(C(C)(C)C)sc12 [compound 308, (R)-N*1*-(6-tert-Butyl-2-pyridin-4-yl-thieno[3,2-d]pyrimidin-4-yl)-propane-1,2-diamine]",10 to 40 µM
2,"c1ccc(-c2cc3nc(-c4ccncc4)nc(N4CCCNCC4)c3s2)cc1 [compound 368, 4-[1,4]Diazepan-1-yl-6-phenyl-2-pyridin-4-yl-thieno[3,2-d]pyrimidine]",1 to 10 µM
3,"Cc1csc2c(O[C@@H]3CCNC3)nc(-c3ccncc3)nc12 [compound 484, 7-Methyl-2-pyridin-4-yl-4-((R)-pyrrolidin-3-yloxy)-thieno[3,2-d]pyrimidine]",1 to 10 µM
4,"Cc1cc(C)c2c(n1)sc1c(NC[C@H](C)N)nc(-c3ccncc3)nc12 [compound 382, (S)-N*1*-(7,9-Dimethyl-2-pyridin-4-yl-pyrido[3′,2′:4,5]thieno[3,2-d]pyrimidin-4-yl)-propane-1,2-diamine]",0.1 to 1 µM
5,"C[C@H](N)CNc1nc(-c2ccncc2)nc2cc(C(C)(C)C)sc12 [compound 307, (S)-N*1*-(6-tert-Butyl-2-pyridin-4-yl-thieno[3,2-d]pyrimidin-4-yl)-propane-1,2-diamine]",10 to 40 µM
6,"C[C@@H](N)CNc1nc(-c2ccncc2)nc2cc(-c3ccccc3)sc12 [compound 366, (R)-N*1*-(6-Phenyl-2-pyridin-4-yl-thieno[3,2-d]pyrimidin-4-yl)-propane-1,2-diamine]",10 to 40 µM
7,"Cc1csc2c(NC[C@@H](C)N)nc(-c3ccncc3)nc12 [compound 369, (R)-N*1*-(7-Methyl-2-pyridin-4-yl-thieno[3,2-d]pyrimidin-4-yl)-propane-1,2-diamine]",1 to 10 µM

# Same assay, conditions: kinase domain PKCi at 2 μM ATP; read-out: IC50 in IMAP assay against kinase domain PKCi (Activity)
row,Compound,IC50
1,"FC(F)(F)c1ccc(CN2CCN(c3nc(-c4ccncc4)nc4sc5c(c34)CCCC5)CC2)cc1 [compound 121, 2-Pyridin-4-yl-4-[4-(4-trifluoromethyl-benzyl)-piperazin-1-yl]-5,6,7,8-tetrahydro-benzo[4,5]thieno[2,3-d]pyrimidine]",10 to 40 µM
2,Cc1csc2c(NC[C@@H](N)Cc3ccccc3)nc(-c3ccncc3)nc12 [compound 302],< 0.1 µM
3,"COc1ccc(C[C@@H](N)COc2nc(-c3ccncc3)nc3sc4c(c23)CCCC4)cc1 [compound 169, (R)-1-(4-Methoxy-benzyl)-2-(2-pyridin-4-yl-5,6,7,8-tetrahydro-benzo[4,5]thieno[2,3-d]pyrimidin-4-yloxy)-ethylamine]",10 to 40 µM
4,"c1ccc(CCN2CCN(c3nc(-c4ccncc4)nc4sc5c(c34)CCCC5)CC2)cc1 [compound 132, 4-(4-Phenethyl-piperazin-1-yl)-2-pyridin-4-yl-5,6,7,8-tetrahydro-benzo[4,5]thieno[2,3-d]pyrimidine]",10 to 40 µM
5,"CN(CCN)c1nc(-c2ccncc2)nc2sc3c(c12)CCCC3 [compound 15, N*1*-Methyl-N*1*-(2-pyridin-4-yl-5,6,7,8-tetrahydro-benzo[4,5]thieno[2,3-d]pyrimidin-4-yl)-ethane-1,2-diamine]",0.1 to 1 µM
6,"Cc1n[nH]c(C)c1-c1nc(NC[C@@H](N)Cc2ccccc2)c2c3c(sc2n1)CCCC3 [compound 184, (S)-N*1*-[2-(3,5-Dimethyl-1H-pyrazol-4-yl)-5,6,7,8-tetrahydro-benzo[4,5]thieno[2,3-d]pyrimidin-4-yl]-3-phenyl-propane-1,2-diamine]",1 to 10 µM
7,"c1cc(-c2nc(N3CCCNCC3)c3c4c(sc3n2)CCCC4)ccn1 [compound 14, 4-[1,4]Diazepan-1-yl-2-pyridin-4-yl-5,6,7,8-tetrahydro-benzo[4,5]thieno[2,3-d]pyrimidine]",0.1 to 1 µM
8,"c1cc(-c2nc(OC3CCCNC3)c3c4c(sc3n2)CCCC4)ccn1 (centres unmarked) [compound 141, 4-(Piperidin-3-yloxy)-2-pyridin-4-yl-5,6,7,8-tetrahydro-benzo[4,5]thieno[2,3-d]pyrimidine]",1 to 10 µM
9,"N[C@H](CCc1ccccc1)COc1nc(-c2ccncc2)nc2sc3c(c12)CCCC3 [compound 167, (R)-3-Phenyl-1-(2-pyridin-4-yl-5,6,7,8-tetrahydro-benzo[4,5]thieno[2,3-d]pyrimidin-4-yloxymethyl)-propylamine]",10 to 40 µM
10,"N[C@H](CNc1nc(-c2cn[nH]c2)nc2sc3c(c12)CCCC3)Cc1ccccc1 [compound 183, (S)-3-Phenyl-N*1*-[2-(1H-pyrazol-4-yl)-5,6,7,8-tetrahydro-benzo[4,5]thieno[2,3-d]pyrimidin-4-yl]-propane-1,2-diamine]",0.1 to 1 µM
11,"N[C@H](COc1nc(-c2ccncc2)nc2sc3c(c12)CCCC3)Cc1cccc2ccccc12 [compound 161, (S)-1-Naphthalen-1-ylmethyl-2-(2-pyridin-4-yl-5,6,7,8-tetrahydro-benzo[4,5]thieno[2,3-d]pyrimidin-4-yloxy)-ethylamine]",1 to 10 µM
12,"c1cc(-c2nc(N3CCNCC3)c3c4c(sc3n2)CCCCC4)ccn1 [compound 85, 4-Piperazin-1-yl-2-pyridin-4-yl-6,7,8,9-tetrahydro-5H-10-thia-1,3-diaza-benzo[a]azulene]",0.1 to 1 µM
13,"C[C@@H](N)CNc1nc(-c2cn[nH]c2)nc2sc3c(c12)CCCC3 [compound 188, (R)-N*1*-[2-(1H-Pyrazol-4-yl)-5,6,7,8-tetrahydro-benzo[4,5]thieno[2,3-d]pyrimidin-4-yl]-propane-1,2-diamine]",1 to 10 µM
14,"CN(C)CCOc1nc(-c2ccncc2)nc2sc3c(c12)CCCC3 [compound 135, dimethyl-[2-(2-pyridin-4-yl-5,6,7,8-tetrahydro-benzo[4,5]thieno[2,3-d]pyrimidin-4-yloxy)-ethyl]-amine]",1 to 10 µM
15,"N[C@H](COc1nc(-c2ccncc2)nc2sc3c(c12)CCCC3)Cc1ccc(Br)cc1 [compound 171, (S)-1-(4-Bromo-benzyl)-2-(2-pyridin-4-yl-5,6,7,8-tetrahydro-benzo[4,5]thieno[2,3-d]pyrimidin-4-yloxy)-ethylamine]",1 to 10 µM
16,"CNCCOc1nc(-c2ccncc2)nc2sc3c(c12)CCCC3 [compound 137, Methyl-[2-(2-pyridin-4-yl-5,6,7,8-tetrahydro-benzo[4,5]thieno[2,3-d]pyrimidin-4-yloxy)-ethyl]-amine]",1 to 10 µM
17,"N[C@H](COc1nc(-c2ccncc2)nc2sc3c(c12)CCCC3)Cc1c[nH]c2ccccc12 [compound 158, (S)-2-(1H-Indol-3-yl)-1-(2-pyridin-4-yl-5,6,7,8-tetrahydro-benzo[4,5]thieno[2,3-d]pyrimidin-4-yloxymethyl)-ethylamine]",10 to 40 µM
18,"Cc1n[nH]c(C)c1-c1nc(NCCN)c2c3c(sc2n1)CCCC3 [compound 182, N*1*-[2-(3,5-Dimethyl-1H-pyrazol-4-yl)-5,6,7,8-tetrahydro-benzo[4,5]thieno[2,3-d]pyrimidin-4-yl]-ethane-1,2-diamine]",0.1 to 1 µM
19,"N[C@@H](COc1nc(-c2ccncc2)nc2sc3c(c12)CCCC3)Cc1cccc2ccccc12 [compound 173, (R)-1-Naphthalen-1-ylmethyl-2-(2-pyridin-4-yl-5,6,7,8-tetrahydro-benzo[4,5]thieno[2,3-d]pyrimidin-4-yloxy)-ethylamine]",1 to 10 µM
20,"Brc1ccc(CN2CCN(c3nc(-c4ccncc4)nc4sc5c(c34)CCCC5)CC2)cc1 [compound 117, 4-[4-(4-Bromo-benzyl)-piperazin-1-yl]-2-pyridin-4-yl-5,6,7,8-tetrahydro-benzo[4,5]thieno[2,3-d]pyrimidine]",10 to 40 µM
21,"CCc1c(C)sc2nc(-c3ccncc3)nc(NC[C@@H](C)N)c12 [compound 32, (R)-N*1*-(5-Ethyl-6-methyl-2-pyridin-4-yl-thieno[2,3-d]pyrimidin-4-yl)-propane-1,2-diamine]",10 to 40 µM
22,"CC(C)C[C@@H](N)COc1nc(-c2ccncc2)nc2sc3c(c12)CCCC3 [compound 146, (R)-3-Methyl-1-(2-pyridin-4-yl-5,6,7,8-tetrahydro-benzo[4,5]thieno[2,3-d]pyrimidin-4-yloxymethyl)-butylamine]",1 to 10 µM
23,"N[C@H](CNc1nc(-c2ccncc2)nc2sc3c(c12)CCCCC3)Cc1ccccc1 [compound 87, (S)-3-Phenyl-N*1*-(2-pyridin-4-yl-6,7,8,9-tetrahydro-5H-10-thia-1,3-diaza-benzo[a]azulen-4-yl)-propane-1,2-diamine]",0.1 to 1 µM
24,"N[C@H](COc1nc(-c2ccncc2)nc2sc3c(c12)CCCC3)Cc1ccc2ccccc2c1 [compound 160, (S)-1-Naphthalen-2-ylmethyl-2-(2-pyridin-4-yl-5,6,7,8-tetrahydro-benzo[4,5]thieno[2,3-d]pyrimidin-4-yloxy)-ethylamine]",10 to 40 µM
25,"CSCC[C@@H](N)CNc1nc(-c2ccncc2)nc2sc3c(c12)CCCC3 [compound 6, (R)-4-Methylsulfanyl-N*1*- (2-pyridin-4-yl-5,6,7,8-tetrahydro-benzo[4,5]thieno[2,3-d]pyrimidin-4-yl)-butane-1,2-diamine]",1 to 10 µM
26,"N[C@H](COc1nc(-c2ccncc2)nc2sc3c(c12)CCCC3)Cc1ccc(F)cc1 [compound 162, (S)-1-(4-Fluoro-benzyl)-2-(2-pyridin-4-yl-5,6,7,8-tetrahydro-benzo[4,5]thieno[2,3-d]pyrimidin-4-yloxy)-ethylamine]",10 to 40 µM
27,"c1cc(-c2nc(N[C@@H]3CCNC3)c3c4c(sc3n2)CCCC4)ccn1 [compound 19, (2-pyridin-4-yl-5,6,7,8-tetrahydro-benzo[4,5]thieno[2,3-d]pyrimidin-4-yl)-(R)-pyrrolidin-3-yl-amine]",0.1 to 1 µM
28,"N[C@H](COc1nc(-c2ccncc2)nc2sc3c(c12)CCCC3)Cc1ccccc1 [compound 143, (S)-2-Phenyl-1-(2-pyridin-4-yl-5,6,7,8-tetrahydro-benzo[4,5]thieno[2,3-d]pyrimidin-4-yloxymethyl)-ethylamine]",0.1 to 1 µM
